The source of these data is patent US8846704B2, “Thiopyrimidine-based compounds and uses thereof” (YM Biosciences Austraila Pty Ltd, priority 2007, dated 2014).

As a reminder, the inhibition is the relative decrease from the control value, in per cent.

One assay concerns the target T1, human JAK3 (Homo sapiens, UniProt P52333).
T1 construct: The kinase domain of human JAK3 was amplified; GST (N); made in house; host or cells: Sf9 insect cells (baculovirus)
Kind of assay: Alphascreen tyrosine kinase enzyme assay, JAK3 kinase domain. Format: biochemical. The settings on record: read-out: JAK3 IC50_nM. The procedure, abridged:
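GST-affinity-purified human JAK3 kinase domain (baculovirus/Sf9) was pre-incubated 20 min with compound ([…]) in HEPES pH 7.5 buffer with MgCl2, vanadate and Tween 20. Biotinylated peptide substrate ([…]) and ATP were then added; phosphotyrosine was detected by AlphaScreen PY100 acceptor and streptavidin donor beads after 2–3 h.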
(In general: Bead proximity is the source of the signal in Alpha formats.)

Another assay relates to BaF3 wild-type cells. Kind of assay: Cellular screening, BaF3 wild-type cells, Alamar Blue. To be noted: Mus musculus, 40 hr, read-out: BAF3wt IC50_nM. Format: cell-based. The procedure, abridged: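 Cells were cultured in DMEM with 10% FCS and 10% WEHI 3B conditioned medium, and suspensions were prepared at 1.1× final (50,000–200,000 cells/mL). Compounds from 20 μM dilution plates were added at 10× final and incubated for 40 hr at 37° C, 5% CO2. Alamar Blue was then added for 4–6 hours and read at 544 nm.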
A general note: Alamar Blue is a resazurin reagent that responds to reducing activity.

The target in a further assay is T2, Blk(m) (Mus musculus, UniProt P16277).
T2 construct: purchased Upstate Biotechnology (Dundee, UK), KinaseProfiler service
T2 sequence (P16277 whole entry): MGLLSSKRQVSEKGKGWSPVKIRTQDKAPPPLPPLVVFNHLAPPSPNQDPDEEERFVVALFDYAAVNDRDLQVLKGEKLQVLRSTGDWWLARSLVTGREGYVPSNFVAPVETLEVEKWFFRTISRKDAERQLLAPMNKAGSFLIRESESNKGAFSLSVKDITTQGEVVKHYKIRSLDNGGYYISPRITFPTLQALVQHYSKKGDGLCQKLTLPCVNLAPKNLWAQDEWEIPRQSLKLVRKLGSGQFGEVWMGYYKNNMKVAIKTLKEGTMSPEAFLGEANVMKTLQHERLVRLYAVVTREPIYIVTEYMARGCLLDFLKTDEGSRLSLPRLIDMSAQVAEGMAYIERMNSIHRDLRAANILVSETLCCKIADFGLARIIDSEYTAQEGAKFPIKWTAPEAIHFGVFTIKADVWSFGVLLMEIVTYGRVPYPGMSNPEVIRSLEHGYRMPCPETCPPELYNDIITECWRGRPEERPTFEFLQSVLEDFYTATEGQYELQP
Description: Upstate KinaseProfiler enzyme assay, Blk. In kind it is biochemical. To be noted: 500 nM compound; read-out: Percent inhibition at 500 nM Blk(m). An outline of the steps:
(§1)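 Substrates are dissolved and diluted to working stocks in de-ionised water. Enzymes go into the assay from 10× working dilutions prepared in pH 7.0 MOPS buffer (20 mM) containing BSA 1 mg/ml, glycerol 5%, Brij-35 0.01%, β-mercaptoethanol 0.1% and EDTA 1 mM.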

The target of a further assay is T3, KDR(h) (Homo sapiens, UniProt P35968).
T3 construct: purchased Upstate Biotechnology (Dundee, UK), KinaseProfiler service
T3 sequence (P35968 20-1356): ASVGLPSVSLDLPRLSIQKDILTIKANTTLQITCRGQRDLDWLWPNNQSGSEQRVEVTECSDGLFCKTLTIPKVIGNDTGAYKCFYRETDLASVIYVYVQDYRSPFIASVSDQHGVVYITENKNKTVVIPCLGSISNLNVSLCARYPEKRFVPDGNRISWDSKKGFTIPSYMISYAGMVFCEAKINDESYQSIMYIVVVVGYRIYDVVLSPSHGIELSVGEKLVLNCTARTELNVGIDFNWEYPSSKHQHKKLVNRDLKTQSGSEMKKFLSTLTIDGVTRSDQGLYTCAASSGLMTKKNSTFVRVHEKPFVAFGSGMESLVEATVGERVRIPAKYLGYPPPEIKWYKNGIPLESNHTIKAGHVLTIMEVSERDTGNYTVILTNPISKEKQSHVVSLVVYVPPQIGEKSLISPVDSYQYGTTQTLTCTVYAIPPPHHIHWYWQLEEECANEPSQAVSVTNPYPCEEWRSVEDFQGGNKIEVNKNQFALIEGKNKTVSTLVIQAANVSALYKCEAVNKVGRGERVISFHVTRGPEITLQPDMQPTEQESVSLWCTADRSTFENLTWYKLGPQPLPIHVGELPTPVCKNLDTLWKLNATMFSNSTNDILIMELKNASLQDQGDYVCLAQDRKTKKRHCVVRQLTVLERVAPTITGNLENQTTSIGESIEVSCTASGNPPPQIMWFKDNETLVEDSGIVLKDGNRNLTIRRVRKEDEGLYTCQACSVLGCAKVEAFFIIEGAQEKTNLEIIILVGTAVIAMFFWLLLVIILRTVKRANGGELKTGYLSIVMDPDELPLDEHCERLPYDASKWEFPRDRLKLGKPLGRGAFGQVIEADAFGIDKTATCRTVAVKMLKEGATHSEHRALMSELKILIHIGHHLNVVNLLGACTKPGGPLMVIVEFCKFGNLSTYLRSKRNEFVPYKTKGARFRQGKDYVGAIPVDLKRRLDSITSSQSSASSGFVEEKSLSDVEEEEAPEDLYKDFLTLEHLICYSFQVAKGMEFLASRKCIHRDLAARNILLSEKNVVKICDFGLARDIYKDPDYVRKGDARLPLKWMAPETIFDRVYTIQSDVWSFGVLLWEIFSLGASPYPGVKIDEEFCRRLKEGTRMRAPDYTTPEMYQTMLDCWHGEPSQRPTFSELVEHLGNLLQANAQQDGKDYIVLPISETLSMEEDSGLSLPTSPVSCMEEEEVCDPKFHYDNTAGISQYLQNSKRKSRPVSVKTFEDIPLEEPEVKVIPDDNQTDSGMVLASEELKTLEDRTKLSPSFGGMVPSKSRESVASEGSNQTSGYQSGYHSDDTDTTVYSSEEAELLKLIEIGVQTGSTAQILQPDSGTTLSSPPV
Description: Upstate KinaseProfiler enzyme assay, KDR. Format: biochemical. The settings on record: 500 nM compound; read-out: Percent inhibition at 500 nM KDR(h). The procedure, abridged:
as §1

The next assay concerns the target T4, Bmx(h) (Homo sapiens, UniProt P51813).
T4 construct: purchased Upstate Biotechnology (Dundee, UK), KinaseProfiler service
T4 sequence (P51813 1-675): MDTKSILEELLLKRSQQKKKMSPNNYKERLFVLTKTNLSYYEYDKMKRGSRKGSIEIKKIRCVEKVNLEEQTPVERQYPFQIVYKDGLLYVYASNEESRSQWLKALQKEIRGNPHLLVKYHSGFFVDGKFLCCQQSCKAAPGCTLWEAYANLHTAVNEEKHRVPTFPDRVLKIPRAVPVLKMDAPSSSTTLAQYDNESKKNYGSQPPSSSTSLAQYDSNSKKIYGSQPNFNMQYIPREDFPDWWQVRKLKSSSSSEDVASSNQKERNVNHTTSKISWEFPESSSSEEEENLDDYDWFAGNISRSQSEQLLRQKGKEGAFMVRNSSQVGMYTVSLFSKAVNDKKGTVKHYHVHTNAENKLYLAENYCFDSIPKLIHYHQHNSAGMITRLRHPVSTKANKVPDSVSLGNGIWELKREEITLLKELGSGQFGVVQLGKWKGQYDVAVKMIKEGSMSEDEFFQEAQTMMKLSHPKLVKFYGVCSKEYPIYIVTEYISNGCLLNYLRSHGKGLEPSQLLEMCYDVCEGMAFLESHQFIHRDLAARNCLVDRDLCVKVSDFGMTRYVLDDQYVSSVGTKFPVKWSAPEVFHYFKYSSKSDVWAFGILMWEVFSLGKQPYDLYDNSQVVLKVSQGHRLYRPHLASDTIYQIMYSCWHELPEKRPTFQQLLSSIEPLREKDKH
Description: Upstate KinaseProfiler enzyme assay, Bmx. To be noted: 500 nM compound; read-out: Percent inhibition at 500 nM Bmx(h). In kind it is biochemical. The procedure, abridged:
as §1

For a further assay, the target named is T5, human JAK2 (Homo sapiens, UniProt O60674).
T5 construct: The kinase domain of human JAK2 was amplified; GST (N); made in house; host or cells: Sf9 insect cells (baculovirus)
T5 sequence (O60674 849-1124 limits assumed): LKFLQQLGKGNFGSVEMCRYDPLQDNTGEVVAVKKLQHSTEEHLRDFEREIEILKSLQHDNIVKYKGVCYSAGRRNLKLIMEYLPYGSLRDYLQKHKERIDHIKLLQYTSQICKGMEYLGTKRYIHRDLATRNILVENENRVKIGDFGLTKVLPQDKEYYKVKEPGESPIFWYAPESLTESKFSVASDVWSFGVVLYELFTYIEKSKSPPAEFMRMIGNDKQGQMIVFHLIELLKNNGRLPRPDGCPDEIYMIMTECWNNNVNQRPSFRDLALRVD
Description: Alphascreen tyrosine kinase enzyme assay, JAK2 kinase domain. Format: biochemical. The settings on record: read-out: JAK2 IC50_nM. The procedure, abridged:
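JAK2 kinase domain expressed in baculovirus/Sf9 and glutathione-affinity purified. Compounds (final […]) pre-incubated 20 min with enzyme in 10 mM HEPES pH 7.5, MgCl2, NaCl, vanadate, 0.1% Tween 20.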

SMILES strings stand for the structures.

T1 sequence (P52333 822-1111 limits assumed): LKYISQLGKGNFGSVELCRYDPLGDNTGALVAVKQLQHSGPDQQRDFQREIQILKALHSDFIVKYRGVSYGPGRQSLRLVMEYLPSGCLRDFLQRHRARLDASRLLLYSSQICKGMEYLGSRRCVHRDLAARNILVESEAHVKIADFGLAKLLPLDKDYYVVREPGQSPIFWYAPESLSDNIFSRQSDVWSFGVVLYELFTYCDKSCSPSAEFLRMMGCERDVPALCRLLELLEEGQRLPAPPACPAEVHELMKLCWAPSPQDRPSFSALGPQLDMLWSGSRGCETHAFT

Regarding `C=CC(=O)Nc1ccc(Sc2nc(Nc3ccc(N4CCOCC4)cc3)ncc2-c2ccccc2)cc1` [Compound 307, N-(4-(2-(4-morpholinophenylao)-5-phenylpyrimidin-4-ylthio)phenyl)acrylamide], the IC50 on human JAK3 was below 0.1 µM; in the assay with BaF3 wild-type cells, above 20 µM; on human JAK2 it was above 1 µM. Moreover, the inhibition at 0.5 µM at Blk(m) was 0%; on KDR(h) it was 72%; at Bmx(h), 29%.

For `C=CC(=O)Nc1ccc(Sc2nc(Nc3ccc(N4CCC(C(=O)OCC)CC4)cc3)ncc2C)cc1` [Compound 292, ethyl 1-(4-(4-(4-acrylamidophenylthio)-5-methylpyrimidin-2-ylao)phenyl)piperidine-4-carboxylate], the IC50 at human JAK3 was below 0.1 µM; in the assay with BaF3 wild-type cells, above 20 µM; at human JAK2 it was above 1 µM. The inhibition at 0.5 µM came to 10% at Blk(m), 96% on KDR(h) and 59% on Bmx(h).

As to `Cc1cnc(Nc2ccc(N3CCOCC3)cc2)nc1Sc1ccc(N)cc1` [Compound 126, 4-(4-aophenylthio)-5-methyl-N-(4-morpholinophenyl)pyrimidin-2-ae], the results for the IC50 at human JAK3, in the assay on BaF3 wild-type cells and at human JAK2 were below 0.1 µM, above 20 µM and below 0.5 µM, respectively. Besides, the inhibition at 0.5 µM was 43% on Blk(m), 95% on KDR(h) and 78% at Bmx(h).

For the molecule `C=CC(=O)Nc1ccc(Sc2ccnc(Nc3ccc(N4CCS(=O)(=O)CC4)cc3)n2)cc1` [Compound 99, N-{4-[(2-{[4-(1,1-dioxo-1λ^6,4-thiomorpholin-4-yl)phenyl]ao}pyrimidin-4-yl)sulfanyl]phenyl}prop-2-enamide], the IC50 on human JAK3 is below 0.1 µM; on human JAK2, above 1 µM. In addition, the inhibition at 0.5 µM at Blk(m), at KDR(h) and at Bmx(h) was 100% throughout.

Turning to `C=CC(=O)Nc1ccc(Sc2nc(Nc3ccc(N4CCOCC4)cc3)ncc2C)cc1` [Compound 124, N-(4-(5-methyl-2-(4-morpholinophenylao)pyrimidin-4-ylthio)phenyl)acrylamide], the IC50 is below 0.1 µM at human JAK3, above 20 µM with BaF3 wild-type cells and above 1 µM on human JAK2. Besides, the inhibition at 0.5 µM at Blk(m), on KDR(h) and at Bmx(h) was 100% each time.

Take `C=CC(=O)Nc1cccc(Sc2ccnc(Nc3ccc(OC)cc3)n2)c1` [Compound 120, N-(3-(2-(4-methoxyphenylao)pyrimidin-4-ylthio)phenyl)acrylamide]: the results for the IC50 on human JAK3, in the assay with BaF3 wild-type cells and at human JAK2 were below 0.1 µM, above 20 µM and above 1 µM, respectively. Besides, the inhibition at 0.5 µM on Blk(m), at KDR(h) and on Bmx(h) was 100% in each case.

On to `C=CC(=O)Nc1ccc(Sc2ccnc(Nc3ccc(OC)cc3)n2)cc1` [Compound 74, N-(4-(2-(4-methoxyphenylao)pyrimidin-4-ylthio)phenyl)acrylamide], for which the IC50 at human JAK3 is below 0.1 µM; in the assay on BaF3 wild-type cells, above 20 µM; on human JAK2 it was above 1 µM. For the same molecule, the inhibition at 0.5 µM at Blk(m), at KDR(h) and on Bmx(h) was 100% in each case.

Turning to `C=CC(=O)Nc1ccc(Sc2ccnc(Nc3cccc(C#N)c3)n2)cc1` [Compound 118, N-(4-(2-(3-cyanophenylao)pyrimidin-4-ylthio)phenyl)acrylamide], the figures for the IC50 on human JAK3, in the assay with BaF3 wild-type cells and on human JAK2 were below 0.1 µM, above 20 µM and above 1 µM, respectively. The inhibition at 0.5 µM on Blk(m), on KDR(h) and on Bmx(h) was 100% each time.

With `C=CC(=O)Nc1ccc(Sc2ccnc(Nc3cccc(S(N)(=O)=O)c3)n2)cc1` [Compound 364, N-(4-(2-(3-sulfamoylphenylao)pyrimidin-4-ylthio)phenyl)acrylamide], the figures for the IC50 at human JAK3, in the assay on BaF3 wild-type cells and on human JAK2 were below 0.1 µM, below 20 µM and above 1 µM, respectively. Moreover, the results for the inhibition at 0.5 µM on Blk(m), on KDR(h) and on Bmx(h) were 81%, 96% and 73%, respectively.

On to `C=CC(=O)Nc1ccc(Sc2ccnc(Nc3ccc(C(=O)OC)cc3)n2)cc1` [Compound 357, methyl 4-(4-(4-acrylamidophenylthio)pyrimidin-2-ylao)benzoate], for which the IC50 at human JAK3 was below 0.1 µM; at human JAK2, above 1 µM. The inhibition at 0.5 µM at Blk(m) came to 48%; on KDR(h) it was 95%; at Bmx(h), 48%.

Consider `C=CC(=O)Nc1ccc(Sc2ccnc(Nc3ccccc3)n2)cc1` [Compound 350, N-(4-(2-(phenylao)pyrimidin-4-ylthio)phenyl)acrylamide], for which the results for the IC50 at human JAK3, in the assay on BaF3 wild-type cells and at human JAK2 were below 0.1 µM, above 20 µM and above 1 µM, respectively. Further, the inhibition at 0.5 µM on Blk(m), on KDR(h) and on Bmx(h) was 100% throughout.

As to `C=CC(=O)Nc1ccc(Sc2ccnc(Nc3cccc(C(=O)OC)c3)n2)cc1` [Compound 356, methyl 3-(4-(4-acrylamidophenylthio)pyrimidin-2-ylao)benzoate], the IC50 at human JAK3 was below 0.1 µM; in the assay with BaF3 wild-type cells, below 20 µM; at human JAK2 it was above 1 µM. The inhibition at 0.5 µM at Blk(m), at KDR(h) and at Bmx(h) was 100% in each case.

For `C=CC(=O)Nc1ccc(Sc2ccnc(Nc3ccc(N4CCC(N5CCCC5)CC4)cc3)n2)cc1` [Compound 87, N-(4-(2-(4-(4-(pyrrolidin-1-yl)piperidin-1-yl)phenylao)pyrimidin-4-ylthio)phenyl)acrylamide], the values for the IC50 on human JAK3, in the assay on BaF3 wild-type cells and on human JAK2 were below 0.1 µM, below 5 µM and above 1 µM, respectively. Also, the inhibition at 0.5 µM at Blk(m), on KDR(h) and on Bmx(h) was 100% each time.

With `C=CC(=O)Nc1ccc(Sc2nc(Nc3ccc(CNS(C)(=O)=O)cc3)ncc2C)cc1` [Compound 294, N-(4-(5-methyl-2-(4-(methylsulfonamidomethyl)phenylao)pyrimidin-4-ylthio)phenyl)acrylamide], the IC50 was below 0.1 µM at human JAK3, above 20 µM in the assay with BaF3 wild-type cells and above 1 µM at human JAK2. Besides, the inhibition at 0.5 µM stood at 37% at Blk(m), 93% on KDR(h) and 92% at Bmx(h).

For the molecule `CC#CC(=O)Nc1ccc(Sc2ccnc(Nc3ccc(N4CCOCC4)cc3)n2)cc1` [Compound 104, N-(4-(2-(4-morpholinophenylao)pyrimidin-4-ylthio)phenyl)but-2-ynamide], the IC50 on human JAK3 is below 0.1 µM; in the assay on BaF3 wild-type cells, above 20 µM; at human JAK2, above 1 µM. The inhibition at 0.5 µM is 30% on Blk(m) and 100% on Bmx(h).

With `CC(=O)Nc1ccc(Sc2nc(Nc3ccc(N4CCOCC4)cc3)ncc2C)cc1` [Compound 135, N-(4-(5-methyl-2-(4-morpholinophenylao)pyrimidin-4-ylthio)phenyl)acetamide], the IC50 at human JAK3 is below 0.5 µM; on human JAK2, above 1 µM. The inhibition at 0.5 µM on Blk(m) stood at 9%; on KDR(h), 95%; on Bmx(h), 58%.
